Reference: patent publication EP3262942A1, “SELENODIARYLS FOR USE AS MICROBICIDE OR AS MEDICINE” (Evonik Degussa GmbH, priority 2016, dated 2018)

Columns and labels:
[1] = system: Botrytis cinerea; assay: microbe, parasite or virus in culture; type: cell-based; settings: for inhibition of growth at 5 µg/mL / inhibition of growth at 10 µg/mL / inhibition of growth at 25 µg/mL / inhibition of growth at 50 µg/mL: Botrytis cinerea, 24 h, read-out: Aktivität gegenüber B. cinerea
[2] = system: alle getesteten Pathogene; type: cell-based; settings: 5-50 µg/mL
[3] = system: M. grisea CM; assay: microbe, parasite or virus in culture; type: cell-based, Magnaporthe grisea; settings: Pyricularia grisea, 24 h, read-out: Aktivität gegenüber M. grisea CM
[4] = system: Mucor miehei; assay: Growth test in microtiter plates, HA medium, 24 h, visual evaluation; type: cell-based; design: key to Aktivität gegenüber M. miehei: +: kein Wachstum im Vergleich zur Wachstumskontrolle; -: Wachstum wie Wachstumskontrolle
[5] = system: Paecilomyces variotii; assay: as above; type: cell-based; design: key: +: kein Wachstum im Vergleich zur Wachstumskontrolle; -: Wachstum wie Wachstumskontrolle
[6] = system: Candida albicans; assay: as above; type: cell-based; design: key: +: kein Wachstum im Vergleich zur Wachstumskontrolle; -: Wachstum wie Wachstumskontrolle
[7] = system: M. grisea H2O; assay: microbe, parasite or virus in culture; type: cell-based, Magnaporthe grisea; settings: Pyricularia grisea, H2O, 24 h, read-out: Aktivität gegenüber M. grisea H2O
[8] = system: Penicillium notatum; assay: Growth test in microtiter plates, HA medium, 24 h, visual evaluation; type: cell-based; design: key: +: kein Wachstum im Vergleich zur Wachstumskontrolle; -: Wachstum wie Wachstumskontrolle
[9] = system: Setaria italica; assay: Crop plant growth test, seeds on filter discs, 4 days, visual evaluation; type: in vivo
Method: (§1) Testsubstanzen und Kontrollen werden auf Filterrondellen in Mikrotiterplatten (48 well) vorgelegt und das verwendete Lösungsmittel (DMSO) über Lyophilisation entfernt. Anschließend werden ca. 12 Samen pro Vertiefung (Setaria italical Lepidium sativum) zugeben, mit 200 µl sterilem Leitungswasser pro Vertiefung versetzt, mit einem Deckel versehen und in einer feuchten Kammer für 4 Tage im Pflanzenbrutschrank inkubiert (16h-Licht-8h-Dunkel-Rhythmus). Die Auswertung des Tests erfolgt optisch (+: mind. 75 % Wachstumshemmung im Vergleich zur Kontrolle, -: weniger als 75 % Wachstumshemmung im Vergleich zur Kontrolle.

[10] = system: Lepidium sativum; assay: as above; type: in vivo
Method: as §1

[11] = system: P. infestans; assay: microbe, parasite or virus in culture; type: cell-based, Phytophthora infestans; settings: Phytophthora infestans, 24 h, read-out: Aktivität gegenüber P. infestans

SMILES	inhibition of growth at 5 µg/mL [1]	inhibition of growth at 10 µg/mL [1]	inhibition of growth at 25 µg/mL [1]	inhibition of growth at 50 µg/mL [1]	Aktivität im Wachstums- und Keimungshemmungstest gegen die getesteten Pathogene [2]	inhibition of growth at 5 µg/mL [3]	inhibition of growth at 10 µg/mL [3]	inhibition of growth at 25 µg/mL [3]	inhibition of growth at 50 µg/mL [3]	Aktivität gegenüber M. miehei ([4]; 10µg/mL)	Aktivität gegenüber M. miehei ([4]; 50µg/mL)	Aktivität gegenüber P. variotii ([5]; 10µg/mL)	Aktivität gegenüber P. variotii ([5]; 50µg/mL)	Aktivität gegenüber C. albicans ([6]; 10µg/mL)	Aktivität gegenüber C. albicans ([6]; 50µg/mL)	inhibition of growth at 5 µg/mL [7]	inhibition of growth at 10 µg/mL [7]	inhibition of growth at 25 µg/mL [7]	inhibition of growth at 50 µg/mL [7]	Aktivität gegenüber P. notatum ([8]; 10µg/mL)	also measured
CCc1cc([Se]c2cc(CC)cc(C(C)(C)C)c2O)c(O)c(C(C)(C)C)c1 [Verbindung 15, Bis(3-tert-butyl-5-ethyl-2-hydroxyphenyl)selen]	0 to 25%	0 to 25%	0 to 25%	0 to 25%	weder im Wachstums- noch im Keimungshemmungstest im verwendeten Konzentrationsbereich eine entsprechende Aktivität	0 to 25%	0 to 25%	0 to 25%	0 to 25%	-	-	-	-	-	-	0 to 25%	0 to 25%	0 to 25%	0 to 25%	-	Aktivität gegenüber P. notatum ([8]; 50µg/mL): -; Aktivität gegenüber Nutzpflanzen: S. italica ([9]; 10µg/R): - (weniger als 75 % Wachstumshemmung im Vergleich zur Kontrolle); Aktivität gegenüber Nutzpflanzen: S. italica ([9]; 20µg/R): - (weniger als 75 % Wachstumshemmung im Vergleich zur Kontrolle); Aktivität gegenüber Nutzpflanzen: S. italica ([9]; 50µg/R): - (weniger als 75 % Wachstumshemmung im Vergleich zur Kontrolle); Aktivität gegenüber Nutzpflanzen: L. sativum ([10]; 10µg/R): - (weniger als 75 % Wachstumshemmung im Vergleich zur Kontrolle); Aktivität gegenüber Nutzpflanzen: L. sativum ([10]; 20µg/R): - (weniger als 75 % Wachstumshemmung im Vergleich zur Kontrolle); Aktivität gegenüber Nutzpflanzen: L. sativum ([10]; 50µg/R): - (weniger als 75 % Wachstumshemmung im Vergleich zur Kontrolle); inhibition of growth at 5 µg/mL [11]: 0 to 25%; inhibition of growth at 10 µg/mL [11]: 0 to 25%; inhibition of growth at 25 µg/mL [11]: 0 to 25%; inhibition of growth at 50 µg/mL [11]: 0 to 25%
CCC(C)(C)c1cc([Se]c2cc(C(C)(C)CC)cc(C(C)(C)CC)c2O)c(O)c(C(C)(C)CC)c1 [Verbindung 16, Bis(3,5-di(1,1-dimethylpropyl)-2-hydroxyphenyl)selen]	0 to 25%	0 to 25%	0 to 25%	0 to 25%	weder im Wachstums- noch im Keimungshemmungstest im verwendeten Konzentrationsbereich eine entsprechende Aktivität	0 to 25%	0 to 25%	0 to 25%	0 to 25%	-	-	-	-	-	-	0 to 25%	0 to 25%	0 to 25%	0 to 25%	-	Aktivität gegenüber P. notatum ([8]; 50µg/mL): -; Aktivität gegenüber Nutzpflanzen: S. italica ([9]; 10µg/R): - (weniger als 75 % Wachstumshemmung im Vergleich zur Kontrolle); Aktivität gegenüber Nutzpflanzen: S. italica ([9]; 20µg/R): - (weniger als 75 % Wachstumshemmung im Vergleich zur Kontrolle); Aktivität gegenüber Nutzpflanzen: S. italica ([9]; 50µg/R): - (weniger als 75 % Wachstumshemmung im Vergleich zur Kontrolle); Aktivität gegenüber Nutzpflanzen: L. sativum ([10]; 10µg/R): - (weniger als 75 % Wachstumshemmung im Vergleich zur Kontrolle); Aktivität gegenüber Nutzpflanzen: L. sativum ([10]; 20µg/R): - (weniger als 75 % Wachstumshemmung im Vergleich zur Kontrolle); Aktivität gegenüber Nutzpflanzen: L. sativum ([10]; 50µg/R): - (weniger als 75 % Wachstumshemmung im Vergleich zur Kontrolle); inhibition of growth at 5 µg/mL [11]: 0 to 25%; inhibition of growth at 10 µg/mL [11]: 0 to 25%; inhibition of growth at 25 µg/mL [11]: 0 to 25%; inhibition of growth at 50 µg/mL [11]: 0 to 25%
Cc1cc(C(C)C)c(O)c([Se]c2c(C)c(C)cc(C(C)C)c2O)c1C [Verbindung 18, Bis(5,6-dimethyl-2-hydroxy-3-isopropylphenyl)selen]	0 to 25%	0 to 25%	0 to 25%	0 to 25%	weder im Wachstums- noch im Keimungshemmungstest im verwendeten Konzentrationsbereich eine entsprechende Aktivität	0 to 25%	0 to 25%	0 to 25%	0 to 25%	-	-	-	-	-	-	0 to 25%	0 to 25%	0 to 25%	0 to 25%	-	Aktivität gegenüber P. notatum ([8]; 50µg/mL): -; Aktivität gegenüber Nutzpflanzen: S. italica ([9]; 10µg/R): - (weniger als 75 % Wachstumshemmung im Vergleich zur Kontrolle); Aktivität gegenüber Nutzpflanzen: S. italica ([9]; 20µg/R): - (weniger als 75 % Wachstumshemmung im Vergleich zur Kontrolle); Aktivität gegenüber Nutzpflanzen: S. italica ([9]; 50µg/R): - (weniger als 75 % Wachstumshemmung im Vergleich zur Kontrolle); Aktivität gegenüber Nutzpflanzen: L. sativum ([10]; 10µg/R): - (weniger als 75 % Wachstumshemmung im Vergleich zur Kontrolle); Aktivität gegenüber Nutzpflanzen: L. sativum ([10]; 20µg/R): - (weniger als 75 % Wachstumshemmung im Vergleich zur Kontrolle); Aktivität gegenüber Nutzpflanzen: L. sativum ([10]; 50µg/R): - (weniger als 75 % Wachstumshemmung im Vergleich zur Kontrolle); inhibition of growth at 5 µg/mL [11]: 0 to 25%; inhibition of growth at 10 µg/mL [11]: 0 to 25%; inhibition of growth at 25 µg/mL [11]: 0 to 25%; inhibition of growth at 50 µg/mL [11]: 0 to 25%
Cc1cc([Se]c2cc(C)c(O)c(C)c2)cc(C)c1O [Verbindung 19, Bis(3,5-dimethyl-4-hydroxyphenyl)selen]	25 to 50%	> 75%	> 75%	0 to 25%	deutliche Aktivität gegenüber allen getesteten Pathogenen, mit Ausnahme von C. albicans	> 75%	> 75%	> 75%	> 75%	+	+	-	-	-	-	> 75%	> 75%	> 75%	> 75%	-	mikrobizide Wirksamkeit gegenüber B. cinerea [1]: mikrobizide Wirksamkeit; Aktivität gegenüber P. notatum ([8]; 50µg/mL): +; Aktivität gegenüber Nutzpflanzen: S. italica ([9]; 10µg/R): + (mind. 75 % Wachstumshemmung im Vergleich zur Kontrolle); Aktivität gegenüber Nutzpflanzen: S. italica ([9]; 20µg/R): + (mind. 75 % Wachstumshemmung im Vergleich zur Kontrolle); Aktivität gegenüber Nutzpflanzen: S. italica ([9]; 50µg/R): + (mind. 75 % Wachstumshemmung im Vergleich zur Kontrolle); Effekt auf S. italica ([9]; […]): wachstumshemmenden Effekt; Aktivität gegenüber Nutzpflanzen: L. sativum ([10]; 10µg/R): - (weniger als 75 % Wachstumshemmung im Vergleich zur Kontrolle); Aktivität gegenüber Nutzpflanzen: L. sativum ([10]; 20µg/R): - (weniger als 75 % Wachstumshemmung im Vergleich zur Kontrolle); Aktivität gegenüber Nutzpflanzen: L. sativum ([10]; 50µg/R): - (weniger als 75 % Wachstumshemmung im Vergleich zur Kontrolle); inhibition of growth at 5 µg/mL [11]: 0 to 25%; inhibition of growth at 10 µg/mL [11]: 50 to 75%; inhibition of growth at 25 µg/mL [11]: 50 to 75%; inhibition of growth at 50 µg/mL [11]: 0 to 25%
